Data set [1] concerns Plasmodium falciparum. Nature of the data set: NOVARTIS: Inhibition of Plasmodium falciparum 3D7 (drug-susceptible) proliferation in erythrocyte-based infection assay. The settings on record: Plasmodium falciparum, 3D7. In kind it is functional, organism-based.
A short description of data set [2]: NOVARTIS: Cytotoxicity against human hepatocellular carcinoma cell line (Huh7). In kind it is toxicity, cell-based, Huh-7. Conditions: Huh7 cells (hepatocellular carcinoma cell line).
Data set [3] concerns Plasmodium falciparum. Nature of the data set: NOVARTIS: Inhibition of Plasmodium falciparum W2 (drug-resistant) proliferation in erythrocyte-based infection assay. In kind it is functional, organism-based. Conditions: Plasmodium falciparum, W2; read-out: EC50.

A word on the EC50: it is the concentration giving half of the maximal effect. The CC50 is the concentration giving 50% cytotoxicity.

Bounds are passed on as bounds.

Turning to `O=C(NN=CC(Br)=Cc1ccccc1)c1ccc(F)cc1`, the half-maximal effective concentration (EC50) worked out at 981 nM in the data set with Plasmodium falciparum [1] and 618 nM in the data set with Plasmodium falciparum [3]. Also, the CC50 in data set [2] was more than 10000 nM.
In the same order, the values of `Cc1ccc2nc(-c3ccc(O)cc3)oc2c1` are more than 1250 nM, more than 635 nM and more than 10000 nM.
In the same order, the values of `COc1ccc(C2c3cccn3-c3ccccc3N2C(=O)CN(C(=O)Nc2ccc(C(F)(F)F)cc2)C2CC2)cc1` (centres undefined) are 7510 nM, 6200 nM and more than 100000 nM.
As for `CCCCCCN(C(=O)c1ccc2ccccc2c1)C(CC)c1nc2ccccc2c(=O)n1-c1ccccc1OC` (centres undefined), the EC50 in the data set on Plasmodium falciparum [1] came out at 641 nM; in the data set on Plasmodium falciparum [3], 631 nM. For the same compound, in data set [2], the CC50 was more than 10000 nM.
The like results for `CCNC(=O)[C@@H]1C[C@@H](NC2C3CC4CC(C3)CC2C4)CN1Cc1cccc(OC)c1OC` (some centres undefined) were, in that order, more than 12500 nM, 4600 nM and 72200 nM.
The like results for `CCOC(=O)C1(CC)CC(C)(C(=O)C[n+]2cccc(Br)c2)OC1=O` (centres undefined) were, in that order, 410 nM, 628 nM and more than 10000 nM.
The like results for `CC(C)CNC(=O)c1cnc(NCCCn2ccnc2)nc1Nc1ccccc1` were, in that order, 633 nM, 639 nM and more than 10000 nM.
In the case of `COc1ccc(C(=O)C(C)[n+]2ccccc2-c2ccccn2)cc1` (centres undefined), the EC50 with Plasmodium falciparum [1] is 602 nM; in the data set with Plasmodium falciparum [3], more than 751 nM. Besides, the CC50 in data set [2] is more than 12100 nM.
With `Cc1ccc(C(=O)NCCN2CCCCC2)cn1`, the EC50 is more than 1310 nM in the data set with Plasmodium falciparum [1] and 621 nM in the data set on Plasmodium falciparum [3]. For the same compound, the CC50 in data set [2] is more than 10000 nM.
As to `COc1cccc(CC2(CO)CCCN(Cc3sc(N4CCCC4)nc3Cl)C2)c1` (centres undefined), the EC50 in the data set with Plasmodium falciparum [1] is more than 12500 nM; in the data set on Plasmodium falciparum [3] it was more than 6210 nM. Further, the CC50 in data set [2] was more than 100000 nM.
Consider `Cc1nc(-c2ccccc2)nc(C(=O)N2CCN(C(=O)/C=C/c3ccccc3)C(C)C2)c1C(=O)OC(C)C` (centres undefined), for which the EC50 in the data set on Plasmodium falciparum [1] is more than 1250 nM; with Plasmodium falciparum [3] it was 621 nM. Further, in data set [2], the cytotoxic concentration (CC50) is more than 10000 nM.
Consider `COCCNc1cc(-c2ccccn2)nc(-c2ccccn2)n1`, for which the EC50 amounted to 440 nM in the data set on Plasmodium falciparum [1] and 624 nM with Plasmodium falciparum [3]. This compound also showed a CC50 in data set [2] of more than 10000 nM.
`CCN(CC)[P+](N(C)C[Si](C)(C)C)(N(CC)CC)N(CC)CC`: the EC50 was found to be 154 nM with Plasmodium falciparum [1] and 523 nM in the data set with Plasmodium falciparum [3]. Also, the 50% cytotoxic concentration (CC50) in data set [2] came to 8410 nM.
The like results for `CCN(CC)CCN(Cc1cc2ccc(C)cc2[nH]c1=O)C(=S)NC(C)c1ccccc1` (centres undefined) were, in that order, 1690 nM, 1340 nM and 21500 nM.
In the same order, the values of `CC(C)CC(NC(=O)/C(=C\c1ccco1)NC(=O)c1ccccc1)C(=O)OCc1ccccc1` (centres undefined) are more than 1250 nM, more than 625 nM and more than 10000 nM.
In the case of `CCCCN(CC(=O)N1c2ccccc2-n2cccc2C1c1ccc(OC)cc1)C(=O)Nc1cccc(F)c1` (centres undefined), the EC50 with Plasmodium falciparum [1] was determined as 8600 nM; with Plasmodium falciparum [3], 6250 nM. Further, the CC50 in data set [2] was more than 100000 nM.
In the same order, the values of `CC[n+]1c(/C=C/N(C)c2ccccc2)sc(-c2ccccc2)c1-c1ccccc1` are 1100 nM, 638 nM and more than 10000 nM.
On to `CCCn1c(C(CC)N2CCNCC2)nc2ccccc2c1=O` (centres undefined), for which the concentration giving a half-maximal response (EC50) was 285 nM in the data set on Plasmodium falciparum [1] and 637 nM in the data set with Plasmodium falciparum [3]. In data set [2], this compound had a 50% cytotoxic concentration (CC50) of more than 10000 nM.
In the same order, the values of `CCC(/C=C1\Sc2ccc3ccccc3c2N1C)=C\c1sc2ccc3ccccc3c2[n+]1C` are 2610 nM, 6370 nM and more than 100000 nM.
In the same order, the values of `CCCCCC(=O)N(CCN(C)C)C(CC)c1nc2ccccc2c(=O)n1-c1ccc(F)cc1` (centres undefined) are more than 1250 nM, more than 628 nM and more than 10000 nM.
For the compound `COc1cc(OC)cc(N2CCN(CCNCCOc3ccccc3)[C@@H](c3ccccc3)C2)c1`, the EC50 in the data set with Plasmodium falciparum [1] was more than 1250 nM; in the data set with Plasmodium falciparum [3], more than 635 nM. For the same compound, the CC50 in data set [2] was more than 10000 nM.
For the compound `CC(=O)N1CCN(C(=O)CCCSc2nnc(-c3ccc(C)cc3)n2-c2cccc(C)c2)CC1C` (centres undefined), the figures for the EC50 in the data set on Plasmodium falciparum [1] and with Plasmodium falciparum [3] were more than 914 nM and more than 634 nM, respectively. The CC50 in data set [2] is more than 10000 nM.
The like results for `CC1Cc2ccc(F)cc2CN1C(=O)c1ccc(COc2ccccc2Br)o1` (centres undefined) were, in that order, 8370 nM, 6350 nM and more than 100000 nM.
In the same order, the values of `O=C(CSc1ccccc1)NCCCCNc1ccnc2cc(Cl)ccc12` are 488 nM, 632 nM and more than 10000 nM.
The like results for `CC(C)COc1ccc(C(=O)N/C(=C/c2ccccc2)C(N)=O)cc1` were, in that order, more than 1250 nM, more than 617 nM and more than 10000 nM.
As to `CCOC(=O)c1cnc2c(C)cc(Cl)cc2c1Nc1ccc(OC)c(OC)c1`, the EC50 is more than 1250 nM with Plasmodium falciparum [1] and more than 726 nM in the data set on Plasmodium falciparum [3]. Further, the CC50 in data set [2] was more than 11800 nM.
Turning to `COC(CNc1cc(-c2ccccn2)nc(-c2ccccn2)n1)OC`, the figures for the EC50 with Plasmodium falciparum [1] and in the data set with Plasmodium falciparum [3] were 336 nM and 633 nM, respectively. In data set [2], this compound displayed a CC50 of more than 10000 nM.
The like results for `COc1ccc(N2C(N)=NC(N)=NC23CCCC3)cc1` were, in that order, 393 nM, 6350 nM and more than 100000 nM.
Turning to `O=C(Nc1ccccc1)C1Cc2ccccc2CN1S(=O)(=O)c1ccc(F)cc1` (centres undefined), the EC50 in the data set with Plasmodium falciparum [1] was more than 12500 nM; in the data set with Plasmodium falciparum [3], 6310 nM. The CC50 in data set [2] was more than 100000 nM.
The like results for `CC1(C)CC(N=c2cc(-c3ccccc3)oc3ccc(Cl)cc23)CC(C)(C)N1` were, in that order, 251 nM, 609 nM and 9600 nM.
In the same order, the values of `COc1cc(NC2=CC(=O)C(=O)c3ccccc32)c(OC)cc1Cl` are 294 nM, 687 nM and 11200 nM.
For the compound `O=C1CCC(CCNCc2ccc(Cl)cc2)N1CC1(N2CCCCC2)CCCC1` (centres undefined), the half-maximal effective concentration (EC50) is more than 1250 nM in the data set on Plasmodium falciparum [1] and 632 nM with Plasmodium falciparum [3]. In data set [2], this compound had a CC50 of more than 10000 nM.
The like results for `CCCC1=[N+](CC(=O)c2ccc(C)cc2)CCn2c(C)ccc21` were, in that order, 792 nM, more than 618 nM and more than 10000 nM.
As to `COc1ccccc1N1CCN(c2ccc(NC(=O)c3cccc(F)c3)cc2C(=O)N2CCCC2)CC1`, the EC50 with Plasmodium falciparum [1] was more than 12500 nM; in the data set on Plasmodium falciparum [3], 6350 nM. The same compound registered a CC50 in data set [2] of more than 100000 nM.
The like results for `O=C(NCCC(c1ccccc1)c1ccccc1)c1cccc([N+](=O)[O-])c1` were, in that order, 302 nM, 618 nM and more than 10000 nM.
As for `CCCc1nc2ccc(NC(=O)NCC)cc2c(=O)n1Cc1ccc(-c2ccccc2)cc1`, the EC50 was determined as 9050 nM in the data set with Plasmodium falciparum [1] and 6320 nM with Plasmodium falciparum [3]. In data set [2], this compound registered a CC50 of more than 100000 nM.
The like results for `CN(C(=O)CCNC(=O)Cn1cnc2ccccc2c1=O)C1CCCCC1` were, in that order, more than 1250 nM, more than 636 nM and more than 10000 nM.
Consider `CC(C)(C)c1ccc(CNC(=O)C(Cc2ccc(O)cc2)c2ccccc2)cc1` (centres undefined), for which the values for the half-maximal effective concentration (EC50) with Plasmodium falciparum [1] and in the data set with Plasmodium falciparum [3] were more than 8680 nM and 3270 nM, respectively. This compound came in with a CC50 in data set [2] of 53200 nM.
Turning to `O=C1N(Cc2cc3ccccc3s2)CC2CN(Cc3ccoc3)CCN12` (centres undefined), the EC50 came out at 1080 nM in the data set on Plasmodium falciparum [1] and 619 nM in the data set with Plasmodium falciparum [3]. The CC50 in data set [2] was more than 10000 nM.
The like results for `CC(NS(=O)(=O)c1ccccc1)C(c1cccs1)N1CCN(c2ccccc2F)CC1` (centres undefined) were, in that order, more than 12500 nM, 6350 nM and more than 100000 nM.
For the compound `COc1ccc(CN(C=O)/C=C2\Sc3ccccc3C2=O)cc1OC`, the EC50 in the data set on Plasmodium falciparum [1] is more than 1250 nM; with Plasmodium falciparum [3], 617 nM. For the same compound, the CC50 in data set [2] is more than 10000 nM.
The like results for `COc1ccc(CC(=O)N(CCCC(C)Nc2cc(OC)cc3cccnc23)Cc2ccc(OC)c(OC)c2)cc1` (centres undefined) were, in that order, 1200 nM, 666 nM and more than 10800 nM.
The like results for `O=C(c1ccccc1)N1CCN(CC(O)COCc2ccccc2)CC1` (centres undefined) were, in that order, more than 1250 nM, 618 nM and more than 10000 nM.
With `CC(C)c1ccc(/C=C/C(=O)NCc2ccco2)cc1`, the EC50 worked out at 890 nM with Plasmodium falciparum [1] and 628 nM in the data set on Plasmodium falciparum [3]. Also, in data set [2], the CC50 was more than 10000 nM.
In the case of `Cc1n[nH]c2c1C(c1ccc([N+](=O)[O-])cc1)N(c1ccc(Br)cc1)C2=O` (centres undefined), the EC50 in the data set on Plasmodium falciparum [1] was more than 12500 nM; in the data set on Plasmodium falciparum [3], more than 6360 nM. The same compound came in with a CC50 in data set [2] of more than 100000 nM.
In the same order, the values of `CCC(=O)OC(C(C)C(=O)O)C(C)C1OC2(CCC(C)(C3CCC(C)(C4OC(C5OC(O)(CO)C(C)CC5C)CC4C)O3)O2)CC(O)C1C` (centres undefined) are 379 nM, 387 nM and more than 6250 nM.
The like results for `COc1ccc([C@]23Oc4cc(OC)cc(OC)c4[C@@]2(O)[C@@H](O)C(C(=O)N(C)C)[C@@H]3c2ccccc2)cc1` (some centres undefined) were, in that order, more than 602 nM, 630 nM and more than 10000 nM.
The like results for `COc1cc(OC)cc(N2C(=O)N(Cc3ccc(C(C)(C)C)cc3)c3ccccc3S2(=O)=O)c1` were, in that order, 3750 nM, 6300 nM and more than 100000 nM.
For the compound `COC(=O)C1=C(C)NC(=Cc2cc(C)n(-c3ccc(Cl)c(Cl)c3)c2C)C1=O`, the figures for the concentration for a half-maximal effect (EC50) in the data set on Plasmodium falciparum [1] and in the data set on Plasmodium falciparum [3] were 6900 nM and 6320 nM, respectively. The half-maximal cytotoxic concentration (CC50) in data set [2] was more than 100000 nM.
The like results for `CSc1c(C(=O)Nc2ccc(Br)cc2)ccc2c1C(=O)c1ccccc1C2=O` were, in that order, more than 1250 nM, more than 640 nM and more than 10000 nM.
For the compound `CC(C)(C)c1ccc(/C=C/C(=O)NCc2ccco2)cc1`, the figures for the EC50 in the data set on Plasmodium falciparum [1] and in the data set with Plasmodium falciparum [3] were 792 nM and 639 nM, respectively. This compound also came in with a half-maximal cytotoxic concentration (CC50) in data set [2] of more than 10000 nM.
In the case of `OCCN1CCN(c2cc(-c3cccnc3)nc(-c3ccncc3)n2)CC1`, the EC50 worked out at 945 nM in the data set on Plasmodium falciparum [1] and 626 nM in the data set with Plasmodium falciparum [3]. In addition, in data set [2], the CC50 was more than 10000 nM.
As to `CN(C)c1ccc(C(=Cc2cc(-c3ccccc3)cc(-c3ccccc3)[o+]2)c2ccc(N(C)C)cc2)cc1`, the values for the EC50 with Plasmodium falciparum [1] and with Plasmodium falciparum [3] were 1990 nM and 898 nM, respectively. Also, the CC50 in data set [2] was determined as 14400 nM.

Source of the values: ChEMBL document CHEMBL1156829 (Proc Natl Acad Sci U S A, 2008).
